Structures are written as SMILES.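 Five concentrations, 48 hours, 96-well plates. At the GI50, growth is halved. TGI denotes the concentration required for complete inhibition of growth.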

Test systems include A549 NSCLC; CCRF-CEM leukemia; HCT-15 colon; HOP-92 NSCLC; NCI-H23 lung; OVCAR-5 ovarian; NCI-H226 lung; HCT-116 colon; SF-295 CNS; 786-0 renal.
What all share (experiment): NCI tumour cell line growth inhibition, 48 h

As to `Cc1cc(=O)[nH]c(NN2C(Cl)C(=O)C2c2cccc(Cl)c2)n1` (stereo not drawn), the TGI is above 100 µM in the test with A549 NSCLC; 41.7 µM with CCRF-CEM leukemia; 40.9 µM in the test on HCT-15 colon; 41.5 µM in the test with HOP-92 NSCLC; 58.2 µM in the test with NCI-H23 lung; above 100 µM with OVCAR-5 ovarian.
With `COc1ccc2c(OCc3nnc4ccc(-c5ccccc5)nn34)ccnc2c1`, the GI50 with A549 NSCLC was above 100 µM; in the test on CCRF-CEM leukemia, above 58100 nM; in the test on HCT-15 colon it was above 100000 nM; with HOP-92 NSCLC, above 100000 nM; in the test with NCI-H23 lung, above 100 µM; in the test on OVCAR-5 ovarian, above 100 µM. The TGI in the test on A549 NSCLC, in the test with CCRF-CEM leukemia, in the test with HCT-15 colon, with HOP-92 NSCLC, in the test on NCI-H23 lung and with OVCAR-5 ovarian was above 100 µM in each case.
In the case of `Cc1nc2ccccc2c(/C=C/c2ccc(Cl)cc2)c1C(=O)/C=C/c1ccc(Cl)cc1`, the GI50 with CCRF-CEM leukemia was 605 nM; in the test with HCT-15 colon, 787 nM; in the test on NCI-H226 lung it was 1590 nM. For the same molecule, the TGI in the test on CCRF-CEM leukemia was above 100 µM; in the test on HCT-15 colon, 3.13 µM; in the test on NCI-H226 lung it was 3.29 µM.
Turning to `O=C1Nc2ccccc2Nc2ccncc21`, the TGI with A549 NSCLC, in the test with CCRF-CEM leukemia, in the test on HCT-116 colon, in the test with HCT-15 colon, with HOP-92 NSCLC and with NCI-H226 lung was above 100 µM throughout. The TGI in the test on NCI-H23 lung, with OVCAR-5 ovarian and in the test with SF-295 CNS was above 100 µM in each case.
In the case of `CC(=O)[CH-]C(=O)c1ccccc1.CC(=O)[CH-]C(=O)c1ccccc1.C[C@]12CCC(=O)C=C1CC[C@@H]1C2CC[C@@]2(C)C1CC[C@]2(C)[O-].C[C@]12CCC(=O)C=C1CC[C@@H]1C2CC[C@@]2(C)C1CC[C@]2(C)[O-].Cl.[Ti+4]` (stereo partly drawn), the GI50 in the test with A549 NSCLC is 16.1 µM; in the test with CCRF-CEM leukemia, 9780 nM; in the test on HCT-116 colon it was 22.2 µM; in the test with HCT-15 colon, 6490 nM; in the test on NCI-H226 lung it was 14400 nM; in the test with NCI-H23 lung, 14.2 µM. The GI50 in the test on OVCAR-5 ovarian was 16.5 µM; in the test on SF-295 CNS it was 18.4 µM. The TGI is 40.3 µM in the test on A549 NSCLC; above 100 µM in the test with CCRF-CEM leukemia; above 100 µM with HCT-116 colon; 52.4 µM with HCT-15 colon; 56.1 µM in the test on NCI-H226 lung; 35.2 µM in the test with NCI-H23 lung. Also, the TGI is above 100 µM in the test on OVCAR-5 ovarian and 57.3 µM with SF-295 CNS.
Turning to `O=C(CCc1ccccc1)ON1C(=S)C(c2ccccc2)(c2ccccc2)N=C1Sc1ccccc1`, the TGI with 786-0 renal, in the test with A549 NSCLC, with CCRF-CEM leukemia, in the test with HCT-116 colon, in the test on HCT-15 colon and in the test on HOP-92 NSCLC was above 100 µM throughout. Moreover, the TGI in the test with NCI-H226 lung, with NCI-H23 lung, with OVCAR-5 ovarian and in the test on SF-295 CNS was above 100 µM throughout.
With `CCc1nc2ccc(NCCN(C)C)c3c(=O)c4ccccc4n1c23`, the TGI came to 7.66 µM with 786-0 renal; 4.76 µM in the test with A549 NSCLC; 15.1 µM in the test with CCRF-CEM leukemia; 6.26 µM in the test with HCT-116 colon; 4.66 µM with HCT-15 colon; 5.26 µM in the test on HOP-92 NSCLC. Also, the TGI with NCI-H226 lung was found to be 4.34 µM; in the test on NCI-H23 lung it was 3.23 µM; in the test with OVCAR-5 ovarian, 6.69 µM; in the test with SF-295 CNS, 5.04 µM.
Regarding `Oc1[nH]c2ccccc2c1/C=c1/cc2c(c(-c3ccc(F)cc3)n1)=Nc1ccccc1-2`, the GI50 was 0.815 µM in the test on A549 NSCLC; 648 nM with CCRF-CEM leukemia; 1.01 µM in the test with HCT-116 colon; 735 nM in the test with HCT-15 colon; 162 nM in the test on HOP-92 NSCLC; 1520 nM with NCI-H226 lung. For the same molecule, the GI50 in the test on NCI-H23 lung is 1.16 µM; in the test with OVCAR-5 ovarian, 1.36 µM. For the same molecule, the TGI was determined as 2.28 µM in the test with A549 NSCLC; 3.25 µM in the test on CCRF-CEM leukemia; 2.24 µM in the test with HCT-116 colon; 2.43 µM with HCT-15 colon; 0.981 µM in the test with HOP-92 NSCLC; 10.7 µM in the test on NCI-H226 lung. The TGI in the test on NCI-H23 lung is 3.11 µM; in the test with OVCAR-5 ovarian, 4.39 µM.
Take `COc1cccc(-c2cc(=O)c3ccccc3[nH]2)c1`: the TGI in the test on 786-0 renal was above 100 µM; in the test on A549 NSCLC, above 100 µM; in the test on CCRF-CEM leukemia, above 100 µM; in the test with HCT-116 colon, above 100 µM; with HCT-15 colon, above 100 µM; in the test on NCI-H226 lung, above 29.6 µM. The figures for the TGI with NCI-H23 lung, in the test with OVCAR-5 ovarian and in the test with SF-295 CNS were above 100 µM, above 100 µM and 14.8 µM, respectively.
In the case of `CCOC(=O)N(c1ccccc1)N(CC)C(=O)/C(C)=N/Nc1ccc([N+](=O)[O-])cc1`, the TGI in the test on 786-0 renal amounted to 33.4 µM; with A549 NSCLC, 33.9 µM; with CCRF-CEM leukemia, 42 µM; in the test on HCT-116 colon, 27.1 µM; in the test with HCT-15 colon it was 30.3 µM; in the test on HOP-92 NSCLC, 30.3 µM. In addition, the TGI in the test with NCI-H226 lung worked out at 37.5 µM; with NCI-H23 lung, 36.1 µM; in the test with SF-295 CNS, 32.3 µM.

(Values after PubChem BioAssay (NCI).)
